Assay results reported in US20110015119A1, “NOVEL SEMI-SYNTHETIC GLYCOPEPTIDES AS ANTIBACTERIAL AGENTS” (LEAD THERAPEUTICS, INC., priority 2009, published 2011).
≈ marks a conversion by molar mass, not a printed value. Where two headings read alike, the source gives them in different places.

Assays:
Format in all cases: cell-based
[1] = test system: Staphylococcus epidermidis 835; experiment: MIC by broth microdilution, SE 835
Method: (§1) Antibacterial activity in vitro is investigated by broth microdilution method in Meuller-Hinton broth as recommended by NCCLS. All strains tested are clinical isolates either sensitive or resistant to natural glycopeptides. MIC values were determined using the CLSI-recommended broth microdilution procedure (Clinical and Laboratory Standards Institute, Methods for Dilution Antimicrobial Susceptibility Tests for Bacteria That Grow Aerobically; Approved Standard-Seventh Edition.). Automated liquid handlers (Multidrop 384, Labsystems, Helsinki, Finland; Biomek 2000 and Multimek 96, Beckman Coulter, Fullerton Calif.) were used to conduct serial dilutions and liquid transfers. The MIC value for vancomycin is given for comparison. The abbreviations for organisms tested are as follow: SA 100—Staphylococcus aureus 100 (ATCC 29213); SA 757—Staphylococcus aureus 757 (MRSA); SA 2012—Staphylococcus aureus 2012 (VISA); SE 835—Staphylococcus epidermidis 835; SE 831—Staphylococcus epidermidis 831 (MRSE); EFc 101—Enterococcus faecalis 101 (ATCC 29212); EFc 848—Enterococcus faecalis 848 (VRE, Van A); EFcm 800—Enterococcus faecium 800; EFcm 752—Enterococcus faecium 752 (VRE, Van A); SPNE 1195—Streptococcus pneumoniae 1195 (ATCC 49619); SPY 712—Streptococcus pyogenes 712.

[2] = test system: Staphylococcus aureus 100 (ATCC 29213); experiment: MIC by broth microdilution, SA 100
Method: as §1

[3] = test system: Staphylococcus aureus 757 (MRSA); experiment: MIC by broth microdilution, SA 757; details: read-out: MIC SA 757
Method: as §1

[4] = test system: Enterococcus faecalis 101 (ATCC 29212); experiment: MIC by broth microdilution, EFc 101; details: class symbols
Method: as §1

[5] = test system: Enterococcus faecium 800; experiment: MIC by broth microdilution, EFcm 800
Method: as §1

[6] = test system: Enterococcus faecalis 848 (VRE, Van A); experiment: MIC by broth microdilution, EFc 848; details: class symbols
Method: as §1

[7] = test system: Staphylococcus epidermidis 831 (MRSE); experiment: MIC by broth microdilution, SE 831; details: read-out: MIC SE 831
Method: as §1

[8] = test system: Streptococcus pyogenes 712; experiment: MIC by broth microdilution, SPY 712
Method: as §1

[9] = test system: Streptococcus pneumoniae 1195 (ATCC 49619); experiment: MIC by broth microdilution, SPNE 1195
Method: as §1

[10] = test system: Enterococcus faecium 752 (VRE, Van A); experiment: MIC by broth microdilution, EFcm 752; details: class symbols
Method: as §1

[11] = test system: Staphylococcus aureus 2012 (VISA); experiment: MIC by broth microdilution, SA 2012; details: class symbols
Method: as §1

[12] = Staphylococcus epidermidis, 835, read-out: MIC SE 835
[13] = Staphylococcus aureus, ATCC29213, read-out: MIC SA 100
[14] = Enterococcus faecalis, ATCC29212, read-out: MIC E FC 101, Enterococcus faecalis 101 (ATCC 29212)
[15] = Enterococcus faecium, 800, read-out: MIC E FCM 800
[16] = Enterococcus faecalis, VRE, read-out: MIC E FC 848, Enterococcus faecalis 848 (VRE, Van A)
[17] = Staphylococcus epidermidis, MRSE
[18] = Streptococcus pyogenes, 712, read-out: MIC S PYO 712
[19] = Streptococcus pneumoniae, ATCC49619, read-out: MIC S PNE 1195
[20] = Enterococcus faecium, VRE, read-out: MIC E FCM 752, Enterococcus faecium 752 (VRE, Van A)
[21] = Staphylococcus aureus, VISA, read-out: MIC SA 2012, Staphylococcus aureus 2012 (VISA)

Row | Compound | MIC [1, 12] [µg/mL] | MIC [2, 13] [µg/mL] | MIC ([3]; Staphylococcus aureus, MRSA) [µg/mL] | MIC [4, 14] [µg/mL] | MIC [5, 15] [µg/mL] | MIC [6, 16] [µg/mL] | MIC [7, 17] [µg/mL] | MIC [8, 18] [µg/mL] | MIC [9, 19] [µg/mL] | MIC [10, 20] [µg/mL] | MIC [11, 21] [µg/mL] | further results
1 | CCCCCOc1ccc(CCNC(=O)Oc2cc(O)c3c(c2)[C@@H](C(=O)O)NC(=O)[C@H]2NC(=O)[C@H](NC(=O)[C@@H]4NC(=O)[C@H](CC(N)=O)NC(=O)[C@H](NC(=O)[C@@H](CC(C)C)NC)[C@H](O)c5ccc(c(Cl)c5)Oc5cc4cc(c5O[C@@H]4O[C@H](CO)[C@@H](O)[C@H](O)[C@H]4O[C@H]4C[C@](C)(N)[C@H](O)[C@H](C)O4)Oc4ccc(cc4Cl)[C@H]2O)c2ccc(O)c-3c2)cc1 (atropisomer, axis not shown) [Compound 356] | 0.01 to 0.5 (≈ 0.00594 to 0.297 µM) | 0.01 to 0.5 (≈ 0.00594 to 0.297 µM) | 0.01 to 0.5 (≈ 0.00594 to 0.297 µM) | 0.01 to 0.5 (≈ 0.00594 to 0.297 µM) | 0.01 to 0.5 (≈ 0.00594 to 0.297 µM) | > 16 | 0.01 to 0.5 (≈ 0.00594 to 0.297 µM) | 0.01 to 0.5 (≈ 0.00594 to 0.297 µM) | 0.01 to 0.5 (≈ 0.00594 to 0.297 µM) | 4 to 8 (≈ 2.38 to 4.75 µM) | 1 to 2 (≈ 0.594 to 1.19 µM) | 
2 | CCCCCCc1ccc(S(=O)(=O)NCCCCCCNCc2c(O)cc3c(c2O)-c2cc(ccc2O)[C@H]2NC(=O)[C@@H]4NC(=O)[C@H](CC(N)=O)NC(=O)[C@H](NC(=O)[C@@H](CC(C)C)NC)[C@H](O)c5ccc(c(Cl)c5)Oc5cc4cc(c5O[C@@H]4O[C@H](CO)[C@@H](O)[C@H](O)[C@H]4O[C@H]4C[C@](C)(NC(N)=O)[C@H](OC(N)=O)[C@H](C)O4)Oc4ccc(cc4Cl)[C@@H](O)[C@H](NC2=O)C(=O)N[C@@H]3C(=O)O)cc1 (atropisomer, axis not shown) [Compound 370] |  |  |  |  |  |  |  |  |  |  |  | MIC ([1]; Staphylococcus epidermidis 835, class symbols, read-out: MIC SE 835): 0.01 to 0.5 µg/mL (≈ 0.0053 to 0.265 µM); MIC ([2]; ATCC29213, Staphylococcus aureus 100 (ATCC 29213), class symbols, read-out: MIC SA 100): 0.01 to 0.5 µg/mL (≈ 0.0053 to 0.265 µM); MIC ([3]; Staphylococcus aureus 757 (MRSA), class symbols): 0.01 to 0.5 µg/mL (≈ 0.0053 to 0.265 µM); MIC ([4]; ATCC29212, Enterococcus faecalis 101 (ATCC 29212), read-out: MIC E FC 101): 0.01 to 0.5 µg/mL (≈ 0.0053 to 0.265 µM); MIC ([5]; Enterococcus faecium 800, class symbols, read-out: MIC E FCM 800): 0.01 to 0.5 µg/mL (≈ 0.0053 to 0.265 µM); MIC ([6]; Enterococcus faecalis 848 (VRE, Van A), read-out: MIC E FC 848): > 16 µg/mL; MIC ([7]; Staphylococcus epidermidis 831 (MRSE), class symbols): 0.01 to 0.5 µg/mL (≈ 0.0053 to 0.265 µM); MIC ([8]; Streptococcus pyogenes 712, class symbols, read-out: MIC S PYO 712): 0.01 to 0.5 µg/mL (≈ 0.0053 to 0.265 µM); MIC ([9]; ATCC49619, Streptococcus pneumoniae 1195 (ATCC 49619), class symbols, read-out: MIC S PNE 1195): 0.01 to 0.5 µg/mL (≈ 0.0053 to 0.265 µM); MIC ([10]; Enterococcus faecium 752 (VRE, Van A), read-out: MIC E FCM 752): 4 to 8 µg/mL (≈ 2.12 to 4.24 µM); MIC ([11]; Staphylococcus aureus 2012 (VISA), read-out: MIC SA 2012): 0.01 to 0.5 µg/mL (≈ 0.0053 to 0.265 µM)
3 | CCOc1ccc(NC(=O)Oc2cc(O)c3c(c2)[C@@H](C(=O)NC2C4CC5CC(C4)CC2C5)NC(=O)[C@H]2NC(=O)[C@H](NC(=O)[C@@H]4NC(=O)[C@H](CC(N)=O)NC(=O)[C@H](NC(=O)[C@@H](CC(C)C)NC)[C@H](O)c5ccc(c(Cl)c5)Oc5cc4cc(c5O[C@@H]4O[C@H](CO)[C@@H](O)[C@H](O)[C@H]4O[C@H]4C[C@](C)(N)[C@H](O)[C@H](C)O4)Oc4ccc(cc4Cl)[C@H]2O)c2ccc(O)c-3c2)cc1 (stereo partly shown) [Compound 330] | 1 to 2 (≈ 0.573 to 1.15 µM) | 0.5 to 1 (≈ 0.286 to 0.573 µM) | 0.5 to 1 (≈ 0.286 to 0.573 µM) | 1 to 2 (≈ 0.573 to 1.15 µM) | 0.01 to 0.5 (≈ 0.00573 to 0.286 µM) | > 16 | 1 to 2 (≈ 0.573 to 1.15 µM) | 0.01 to 0.5 (≈ 0.00573 to 0.286 µM) | 0.01 to 0.5 (≈ 0.00573 to 0.286 µM) | > 16 | 4 to 8 (≈ 2.29 to 4.58 µM) | 
4 | CNCCCCCNC(=O)Oc1cc(O)c2c(c1)[C@@H](C(=O)NC1C3CC4CC(C3)CC1C4)NC(=O)[C@H]1NC(=O)[C@H](NC(=O)[C@@H]3NC(=O)[C@H](CC(N)=O)NC(=O)[C@H](NC(=O)[C@@H](CC(C)C)NC)[C@H](O)c4ccc(c(Cl)c4)Oc4cc3cc(c4O[C@@H]3O[C@H](CO)[C@@H](O)[C@H](O)[C@H]3O[C@H]3C[C@](C)(N)[C@H](O)[C@H](C)O3)Oc3ccc(cc3Cl)[C@H]1O)c1ccc(O)c-2c1 (stereo partly shown) [Compound 336] | 0.01 to 0.5 (≈ 0.0058 to 0.29 µM) | 0.01 to 0.5 (≈ 0.0058 to 0.29 µM) | 0.01 to 0.5 (≈ 0.0058 to 0.29 µM) | 0.01 to 0.5 (≈ 0.0058 to 0.29 µM) | 0.01 to 0.5 (≈ 0.0058 to 0.29 µM) | > 16 | 0.01 to 0.5 (≈ 0.0058 to 0.29 µM) | 0.01 to 0.5 (≈ 0.0058 to 0.29 µM) | 0.01 to 0.5 (≈ 0.0058 to 0.29 µM) | > 16 | 1 to 2 (≈ 0.58 to 1.16 µM) | 
5 | CNCCOc1ccc(CCNC(=O)Oc2cc(O)c3c(c2)[C@@H](C(=O)NC2C4CC5CC(C4)CC2C5)NC(=O)[C@H]2NC(=O)[C@H](NC(=O)[C@@H]4NC(=O)[C@H](CC(N)=O)NC(=O)[C@H](NC(=O)[C@@H](CC(C)C)NC)[C@H](O)c5ccc(c(Cl)c5)Oc5cc4cc(c5O[C@@H]4O[C@H](CO)[C@@H](O)[C@H](O)[C@H]4O[C@H]4C[C@](C)(N)[C@H](O)[C@H](C)O4)Oc4ccc(cc4Cl)[C@H]2O)c2ccc(O)c-3c2)cc1 (stereo partly shown) [Compound 335] | 0.01 to 0.5 (≈ 0.00555 to 0.277 µM) | 0.01 to 0.5 (≈ 0.00555 to 0.277 µM) | 0.01 to 0.5 (≈ 0.00555 to 0.277 µM) | 0.01 to 0.5 (≈ 0.00555 to 0.277 µM) | 0.01 to 0.5 (≈ 0.00555 to 0.277 µM) | > 16 | 0.01 to 0.5 (≈ 0.00555 to 0.277 µM) | 0.01 to 0.5 (≈ 0.00555 to 0.277 µM) | 0.01 to 0.5 (≈ 0.00555 to 0.277 µM) | 2 to 4 (≈ 1.11 to 2.22 µM) | 1 to 2 (≈ 0.555 to 1.11 µM) | 
